Measured values: article PMC3113527 (Journal of agricultural and food chemistry, 2011)

Assays:
[1] = biological target: secreted phospholipase A2 (PLA2) (Apis mellifera, UniProt P00630); test: biochemical; details: read-out: Inhibition of PLA2
[2] = biological target: T1, Lipase from porcine pancreas (PL) (Sus scrofa, UniProt P00591); test: Pancreatic lipase inhibition assay in vitro; type: biochemical; details: read-out: Inhibition of PL
T1 sequence (P00591 1-450): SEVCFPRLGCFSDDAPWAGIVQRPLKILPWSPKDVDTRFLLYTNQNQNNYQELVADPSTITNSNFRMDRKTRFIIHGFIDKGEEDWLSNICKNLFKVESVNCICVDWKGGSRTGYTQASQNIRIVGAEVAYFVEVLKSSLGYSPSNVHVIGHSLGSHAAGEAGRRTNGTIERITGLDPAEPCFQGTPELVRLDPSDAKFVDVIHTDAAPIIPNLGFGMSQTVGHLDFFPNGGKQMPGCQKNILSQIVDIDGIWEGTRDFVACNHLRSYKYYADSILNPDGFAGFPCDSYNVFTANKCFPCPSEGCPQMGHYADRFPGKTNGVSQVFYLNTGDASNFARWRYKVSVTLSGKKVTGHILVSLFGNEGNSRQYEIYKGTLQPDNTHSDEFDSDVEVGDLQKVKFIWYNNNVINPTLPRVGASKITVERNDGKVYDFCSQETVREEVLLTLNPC

PLA2 = details: at 2 mM; cited from earlier work

Chain of secreted phospholipase A2 (PLA2) (P00630 34-167 limits assumed): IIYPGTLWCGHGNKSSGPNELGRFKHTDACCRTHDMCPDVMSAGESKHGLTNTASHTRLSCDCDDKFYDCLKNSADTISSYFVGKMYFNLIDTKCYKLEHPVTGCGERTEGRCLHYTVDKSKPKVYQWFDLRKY

Oc1cc(O)c2c(c1)O[C@H](c1ccc(O)c(O)c1)[C@H](O)C2 [EC, (−)-epicatechin]
inhibition at 100 µM [1]: 4.5%
inhibition at 20 µM [2]: 15%

O=C(O[C@@H]1Cc2c(O)cc(O)cc2O[C@@H]1c1cc(O)c(O)c(O)c1)c1cc(O)c(O)c(O)c1 [EGCG]
Inhibition of PLA2 in vitro (PLA2): 64.9%

CCCCCCCCCCC[C@@H](C[C@@H]1OC(=O)[C@H]1CCCCCC)OC(=O)[C@H](CC(C)C)NC=O [Orlistat]
inhibition at 10 µM [2]: 72%
